Where a name gives a salt, the structure may show the parent alone.
test system: ZIKV-induced cell death in human astrocytes; test: ATP cell viability assay for ZIKV-induced cell death, human astrocytes; assay type: cell-based; details: ZIKV-infected human astrocytes

Row | SMILES | Cell viability (efficacy, %) Astrocyte
1 | COc1ccc(-c2coc3cc(O)ccc3c2=O)cc1 [Formononetin] | 0.0%
2 | OCc1ccc(-c2ccc(-c3ccc(CO)s3)o2)s1 [RITA] | 81.7%
3 | COc1cccc2c1C(=O)c1c(O)c3c(c(O)c1C2=O)C[C@@](O)(C(=O)CO)C[C@@H]3O[C@H]1C[C@H](N)[C@H](O[C@@H]2CCCCO2)[C@H](C)O1 [Pirarubicin] | 0.0%

same assay, conditions: ZIKV-infected human astrocytes; read-out: Cell viability (IC50, uM) Astrocyte

Row | SMILES | IC50
4 | OCc1ccc(-c2ccc(-c3ccc(CO)s3)o2)s1 [RITA] | 5.81 µM

test system: ZIKV-induced caspase 3/7 activity in human astrocytes; test: Caspase 3/7 activity assay, ZIKV-infected human astrocytes; assay type: cell-based; details: Astrocyte; ZIKV-infected human astrocytes; read-out: Caspase 3 (IC50, uM) Astrocyte
Procedure: (§1) Caspase-Glo 3/7 assay kit (catalog number G8092; Promega, Madison, Wis.) was used to detect caspase 3/7 activity. Reagents were reconstituted as described in the protocol from the manufacturer. Polystyrene plates (384-well and 1536-well; regular tissue culture treated and PDL coated) were purchased from Greiner Bio-One (Monroe, N.C.). Cells were seeded in 384- and 1536-well assay plates and cultured at 37° C. with 5% CO2 for 16 hours. ZIKV solution was added to cells, followed by incubation at 37° C. with 5% CO2 for 6 hours. Caspase-Glo 3/7 was added to each well, unless otherwise specified, and incubated at room temperature for 30 minutes. The luminescence intensity of the assay plates was measured using a ViewLux plate reader (PerkinElmer). Data were normalized by using the cell-containing wells without ZIKV as a negative control (0% induction of caspase 3/7 activity) and wells containing ZIKV infected cells that induced caspase 3/7 activity were used as a positive control (100% induction of caspase 3/7 activity). […]
(§2) Caspase-Glo 3/7 assay kit (Promega) was used to detect caspase 3/7 activity. Reagents were reconstituted as described in the protocol from the manufacturer. Cells were seeded in 384- and 1536-well assay plates and cultured at 37° C. with 5% CO2 for 16 hours. ZIKV solution was added to cells, followed by incubation at 37° C. with 5% CO2 for 6 hours. Caspase-Glo 3/7 was added to each well at a 1:1 ratio, unless otherwise specified, and incubated at room temperature for 30 minutes. The luminescence intensity of the assay plates was measured using a ViewLux plate reader (PerkinElmer). Data was normalized by using the cell-containing wells without ZIKV as a negative (0% induction of caspase 3/7 activity) control and wells containing ZIKV infected cells that induced caspase 3/7 activity were used as a positive control (100% induction of caspase 3/7 activity). […]

Row | IC50 | SMILES
5 | 14.6 µM | COc1ccc(-c2coc3cc(O)ccc3c2=O)cc1 [Formononetin]
6 | 12.3 µM | COc1cc2nc(N3CCN(C(=O)C4CCCO4)CC3)nc(N)c2cc1OC (stereo not drawn) [Terazosin hydrochloride]

Row | SMILES | IC50
7 | COc1cccc2c1C(=O)c1c(O)c3c(c(O)c1C2=O)C[C@@](O)(C(=O)CO)C[C@@H]3O[C@H]1C[C@H](N)[C@H](O[C@@H]2CCCCO2)[C@H](C)O1 [Pirarubicin] | 13.8 µM

same assay, conditions: Astrocyte; ZIKV-infected human astrocytes; read-out: Caspase 3 (efficacy, %) Astrocyte

Row | SMILES | Emax
8 | COc1ccc(-c2coc3cc(O)ccc3c2=O)cc1 [Formononetin] | 94.7%
9 | COc1cccc2c1C(=O)c1c(O)c3c(c(O)c1C2=O)C[C@@](O)(C(=O)CO)C[C@@H]3O[C@H]1C[C@H](N)[C@H](O[C@@H]2CCCCO2)[C@H](C)O1 [Pirarubicin] | 59.8%
10 | COc1cc2nc(N3CCN(C(=O)C4CCCO4)CC3)nc(N)c2cc1OC (stereo not drawn) [Terazosin hydrochloride] | 88.9%

same assay, conditions: ZIKV-infected human astrocytes

Row | Caspase 3 (efficacy, %) Astrocyte | SMILES
11 | 41.2% | OCc1ccc(-c2ccc(-c3ccc(CO)s3)o2)s1 [RITA]

same assay, conditions: ZIKV-infected human astrocytes; read-out: Caspase 3 (IC50, uM) Astrocyte

Row | IC50 | SMILES
12 | 27.5 µM | OCc1ccc(-c2ccc(-c3ccc(CO)s3)o2)s1 [RITA]

test system: ZIKV-induced caspase 3/7 activity in SNB-19 cells; test: Caspase 3/7 activity assay, ZIKV-infected SNB-19 cells; assay type: cell-based; details: Homo sapiens; ZIKV-infected SNB-19 cells; read-out: Caspase 3 (IC50, uM) SNB-19
Procedure: as §1, §2

Row | IC50 | SMILES
13 | 12.3 µM | COc1ccc(-c2coc3cc(O)ccc3c2=O)cc1 [Formononetin]
14 | 17.3 µM | COc1cc2nc(N3CCN(C(=O)C4CCCO4)CC3)nc(N)c2cc1OC (stereo not drawn) [Terazosin hydrochloride]

Row | SMILES | IC50
15 | COc1cccc2c1C(=O)c1c(O)c3c(c(O)c1C2=O)C[C@@](O)(C(=O)CO)C[C@@H]3O[C@H]1C[C@H](N)[C@H](O[C@@H]2CCCCO2)[C@H](C)O1 [Pirarubicin] | 20.6 µM

same assay, conditions: Homo sapiens; ZIKV-infected SNB-19 cells; read-out: Caspase 3 (efficacy, %) SNB-19

Row | SMILES | Emax
16 | COc1ccc(-c2coc3cc(O)ccc3c2=O)cc1 [Formononetin] | 104%
17 | COc1cccc2c1C(=O)c1c(O)c3c(c(O)c1C2=O)C[C@@](O)(C(=O)CO)C[C@@H]3O[C@H]1C[C@H](N)[C@H](O[C@@H]2CCCCO2)[C@H](C)O1 [Pirarubicin] | 63.9%
18 | COc1cc2nc(N3CCN(C(=O)C4CCCO4)CC3)nc(N)c2cc1OC (stereo not drawn) [Terazosin hydrochloride] | 77.3%

same assay, conditions: ZIKV-infected SNB-19 cells

Row | SMILES | Caspase 3 (efficacy, %) SNB-19
19 | OCc1ccc(-c2ccc(-c3ccc(CO)s3)o2)s1 [RITA] | 101%

same assay, conditions: ZIKV-infected SNB-19 cells; read-out: Caspase 3 (IC50, uM) SNB-19

Row | IC50 | SMILES
20 | 0.22 µM | OCc1ccc(-c2ccc(-c3ccc(CO)s3)o2)s1 [RITA]

test system: ZIKV-induced cell death in SNB-19 cells; test: ATP cell viability assay for ZIKV-induced cell death, SNB-19 cells; assay type: cell-based, human; details: ZIKV-infected SNB-19 cells
Procedure: (§3) The reagent was reconstituted and prepared as described by the manufacturer. In order to measure the cell death caused by ZIKV infection, cells were cultured for 16 hours at 37° C. with 5% CO2 in assay plates, followed by the addition of ZIKV solution and incubation at 37° C. with 5% CO2 for 72 hours. ATPlite, the ATP monitoring reagent, was then added to the assay plates and they were incubated for 15 minutes. The resulting luminescence was measured using the ViewLux plate reader (Perkin Elmer). Data were normalized using the wells without cells as a control for 100% cell killing, and cell-containing wells without ZIKV infection were used as full cell viability (0% cell killing). […]
as §3, with “The ATPlite luminescence assay system assay kit (PerkinElmer) was used to determine cell viability. The reagent” for “The reagent”, “by the manufacture. In order” for “by the manufacturer. In order”, “followed by addition of” for “followed by the addition of”, “plates and incubated for” for “plates and they were incubated for”, “Elmer). Data was normalized using” for “Elmer). Data were normalized using”

Row | SMILES | Cell viability (efficacy, %) SNB-19
21 | COc1ccc(-c2coc3cc(O)ccc3c2=O)cc1 [Formononetin] | 0.0%
22 | OCc1ccc(-c2ccc(-c3ccc(CO)s3)o2)s1 [RITA] | 0.0%
23 | COc1cccc2c1C(=O)c1c(O)c3c(c(O)c1C2=O)C[C@@](O)(C(=O)CO)C[C@@H]3O[C@H]1C[C@H](N)[C@H](O[C@@H]2CCCCO2)[C@H](C)O1 [Pirarubicin] | 0.0%

test system: ZIKV-induced caspase 3/7 activity in hNPCs; test: Caspase 3/7 activity assay, ZIKV-infected hNPCs; assay type: cell-based; details: Homo sapiens; ZIKV-infected hNPCs; read-out: Caspase 3 (IC50, uM) NPCs
Procedure: Caspase-Glo 3/7 assay kit (catalog number G8092; Promega, Madison, Wis.) was used to detect caspase 3/7 activity. Reagents were reconstituted as described in the protocol from the manufacturer. Polystyrene plates (384-well and 1536-well; regular tissue culture treated and PDL coated) were purchased from Greiner Bio-One (Monroe, N.C.). Cells were seeded in 384- and 1536-well assay plates and cultured at 37° C. with 5% CO2 for 16 hours. ZIKV solution was added to cells, followed by incubation at 37° C. with 5% CO2 for 6 hours. Caspase-Glo 3/7 was added to each well, unless otherwise specified, and incubated at room temperature for 30 minutes. The luminescence intensity of the assay plates was measured using a ViewLux plate reader (PerkinElmer). Data were normalized by using the cell-containing wells without ZIKV as a negative control (0% induction of caspase 3/7 activity) and wells containing ZIKV infected cells that induced caspase 3/7 activity were used as a positive control (100% induction of caspase 3/7 activity).
Human NPCs were seeded onto PDL coated 1536-well assay plates at 250 cells per 3 μl/well and incubated at 37° C. in 5% CO2 for 16 hours. Test compounds dissolved in DMSO were transferred to assay plates at a volume of 23 nl/well by an automated pintool workstation (Wako Automation, San Diego, Calif.). Compounds were incubated with cells for 30 minutes at 37° C. in 5% CO2, immediately followed by the addition of 2 μl/well of ZIKV. Incubation time of compound-treated cells with ZIKV varied based on assay format. Experiments measuring virus-induced caspase 3/7 activity required a 6 hour incubation of ZIKV in the presence compounds at 37° C. in 5% CO2. Following this incubation, 3.5 μl/well of caspase 3/7 reagent mixture was added to assay plates. The plates were incubated for 30 minutes at room temperature, and the resultant luminescence signal was measured using a ViewLux plate reader (Perkin Elmer). Experiments measuring virus-induced cell death required a 72-hour incubation of ZIKV in the presence of compounds at 37° C. in 5% CO2. Following this incubation, 3.5 μl/well of ATP content detection reagent was added to assay plates, incubated for 30 minutes at the room temperature, and the resultant luminescence signal was measured in a ViewLux plate reader.
Caspase-Glo 3/7 assay kit (Promega) was used to detect caspase 3/7 activity. Reagents were reconstituted as described in the protocol from the manufacturer. Cells were seeded in 384- and 1536-well assay plates and cultured at 37° C. with 5% CO2 for 16 hours. ZIKV solution was added to cells, followed by incubation at 37° C. with 5% CO2 for 6 hours. Caspase-Glo 3/7 was added to each well at a 1:1 ratio, unless otherwise specified, and incubated at room temperature for 30 minutes. The luminescence intensity of the assay plates was measured using a ViewLux plate reader (PerkinElmer). Data was normalized by using the cell-containing wells without ZIKV as a negative (0% induction of caspase 3/7 activity) control and wells containing ZIKV infected cells that induced caspase 3/7 activity were used as a positive control (100% induction of caspase 3/7 activity).
Human NPCs were seeded onto PDL coated 1536-well assay plates at 250 cells per 3 μl/well and incubated at 37° C. in 5% CO2 for 16 hours. Test compounds dissolved in DMSO were transferred to assay plates at a volume of 23 nl/well by an automated pintool workstation (Wako Automation, San Diego, Calif.). Compounds were incubated with cells for 30 minutes at 37° C. in 5% CO2, immediately followed by the addition of 2 μl/well of ZIKV. Incubation time of compound-treated cells with ZIKV varied based on assay format. Experiments measuring virus induced caspase 3/7 activity required a 6 hour incubation of ZIKV in the presence compounds at 37° C. in 5% CO2. […]

Row | IC50 | SMILES
24 | 10.9 µM | COc1ccc(-c2coc3cc(O)ccc3c2=O)cc1 [Formononetin]
25 | 10.9 µM | COc1cc2nc(N3CCN(C(=O)C4CCCO4)CC3)nc(N)c2cc1OC (stereo not drawn) [Terazosin hydrochloride]

same assay, conditions: Homo sapiens; ZIKV-infected hNPCs; read-out: Caspase 3 (efficacy, %) NPCs

Row | SMILES | Emax
26 | COc1ccc(-c2coc3cc(O)ccc3c2=O)cc1 [Formononetin] | 88.3%
27 | COc1cccc2c1C(=O)c1c(O)c3c(c(O)c1C2=O)C[C@@](O)(C(=O)CO)C[C@@H]3O[C@H]1C[C@H](N)[C@H](O[C@@H]2CCCCO2)[C@H](C)O1 [Pirarubicin] | 51.5%
28 | COc1cc2nc(N3CCN(C(=O)C4CCCO4)CC3)nc(N)c2cc1OC (stereo not drawn) [Terazosin hydrochloride] | 84.4%

same assay, conditions: ZIKV-infected hNPCs

Row | Caspase 3 (efficacy, %) NPCs | SMILES
29 | 50.9% | OCc1ccc(-c2ccc(-c3ccc(CO)s3)o2)s1 [RITA]

same assay, conditions: ZIKV-infected hNPCs; read-out: Caspase 3 (IC50, uM) NPCs

Row | IC50 | SMILES
30 | 14.6 µM | OCc1ccc(-c2ccc(-c3ccc(CO)s3)o2)s1 [RITA]

Source: patent publication US10940188B2, “Compounds and methods for treatment and prevention of Flavivirus infection” (priority 2016, dated 2021)
